pKi: −log10 of the molar value.
molecular target: T1, human 5-HT1A-serotonergic receptor (Homo sapiens, UniProt P08908); assay: Radioligand binding to recombinant 5-HT1A receptors ([3H]8-OH-DPAT, HeLa cell membranes); details: 1 nM [3H]8-OH-DPAT; Ki from IC50 by Cheng & Prusoff; read-out: Ki, binding affinity for 5-HT1A receptors
T1 construct: expressed in transfected cells; host or cells: HeLa (human), stably transfected; membrane preparation
T1 sequence (P08908 1-422): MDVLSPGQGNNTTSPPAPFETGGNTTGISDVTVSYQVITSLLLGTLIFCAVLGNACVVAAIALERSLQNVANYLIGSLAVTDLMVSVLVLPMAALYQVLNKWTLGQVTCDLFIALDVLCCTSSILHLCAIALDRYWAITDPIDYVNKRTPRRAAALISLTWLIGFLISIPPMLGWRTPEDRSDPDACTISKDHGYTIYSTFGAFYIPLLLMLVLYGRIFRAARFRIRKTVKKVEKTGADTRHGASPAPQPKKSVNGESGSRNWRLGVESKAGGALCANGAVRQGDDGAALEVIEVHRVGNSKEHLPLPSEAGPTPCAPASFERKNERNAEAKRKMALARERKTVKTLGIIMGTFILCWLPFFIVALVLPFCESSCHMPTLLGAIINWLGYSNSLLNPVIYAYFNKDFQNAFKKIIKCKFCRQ
Method: Genomic clone coding for the human 5-HT1A-serotonergic receptor was stably transfected in a human cell line (HeLa). HeLa cells were grown as monolayers in Dulbecco's modified Eagle medium (DMEM), containing 10% foetal bovine serum, gentamycin (0.1 mg/ml) and 5% carbon dioxide, at 37° C. The cells were detached from the growth flask at 95% confluence by a cell scraper and were lysed in cold 5 mM Tris and 5 mM EDTA buffer (pH 7.4). The homogenates were centrifuged at 40000×g×20 minutes and the pellets were resuspended in a small volume of cold 5 mM Tris and 5 mM EDTA buffer (pH 7.4) and immediately frozen and stored at −70° C. until use. On the day of experiment, the cell membranes were resuspended in incubation buffer: 50 mM Tris HCl (pH 7.4), 2.5 mM MgCl2, […] (Fargin et al., Nature 335, 358-360, 1988). The membranes were incubated in a final volume of 1 ml for 30 minutes at 30° C. with 1 nM [^3H]8-OH-DPAT, in the absence or presence of the test compounds. Non-specific binding was determined in the presence of 10 μM 5-HT. Incubation was stopped by addition of cold Tris-HC1 buffer and rapid filtration through a 0.2%-polyethyleneimine-pretreated Whatman-GF/B or Schleicher-&-Schuell-GF52 filter.
The affinities of the tested compounds were evaluated as inhibition of specific binding of the radioligand to 5-HT1A receptors (IC50) by using the non-linear curve-fitting program Allfit (De Lean et al., Am. J. Physiol. 235, E97-E102 (1978). The IC50 value was converted to an affinity constant (Ki) by the equation of Cheng & Prusoff (Cheng Y. C., Prusoff W. H., Biochem. Pharmacol. 22, 3099-3108 (1973)).

pKi | Compound
8.94 | O=C(C1CCCCC1)C(CCN1CCN(c2cccc3[nH]ccc23)CC1)c1ccccc1OC(F)(F)F (stereo not drawn) [Example 44, 1-[4-Cyclohexyl-3-(2-trifluoromethoxyphenyl)-4-oxobutyl]-4-(4-indolyl)piperazine]
9.40 | N#Cc1ccccc1[C@@H](CCN1CCN(c2cccc3c2OCCO3)CC1)[C@@H](O)C1CCCCC1 (racemic) [Example 14, (RS,SR)-1-[3-(2-Cyanophenyl)-4-cyclohexyl-4-hydroxybutyl]-4-[5-(2,3-dihydro-1,4-benzodioxinyl)]piperazine]
8.53 | C=CC(O)C(CCN1CCN(c2cccc3c2OCCO3)CC1)c1ccccc1 (stereo not drawn) [Example 28, 1-[5-(2,3-Dihydro-1,4-benzodioxinyl)]-4-(4-hydroxy-3-phenylhex-5-enyl]piperazine]
8.78 | C=CCC(O)C(CCN1CCN(c2cccc3c2OCCO3)CC1)c1ccccc1 (stereo not drawn) [Example 34, 1-[5-(2,3-Dihydro-1,4-benzodioxinyl)]-4-(4-hydroxy-3-phenylhept-6-enyl)piperazine]
8.69 | C=CCOC(C1CCCCC1)C(CCN1CCN(c2ccc(F)cc2OC)CC1)c1ccccc1 (stereo not drawn) [Example 22, 1-(4-Allyloxy-4-cyclohexyl-3-phenylbutyl)-4-(4-fluoro-2-methoxyphenyl)piperazine]
9.25 | CC(C)CC(O)C(CCN1CCN(c2cccc3c2OCCO3)CC1)c1ccccc1 (stereo not drawn) [Example 36]
9.19 | C#CCOC(C1CCCCC1)C(CCN1CCN(c2ccc(F)cc2OC)CC1)c1ccccc1 (stereo not drawn) [Example 24, 1-(4-Cyclohexyl-3-phenyl-4-propargyloxybutyl)-4-(4-fluoro-2-methoxyphenyl)piperazine]
8.14 | C=CC(O)C(CCN1CCN(c2cccc3c2OCCO3)CC1)c1ccccc1OC(F)(F)F (stereo not drawn) [Example 7, 1-[5-(2,3-Dihydro-1,4-benzodioxinyl)]-4-[4-hydroxy-3-(2-trifluoromethoxyphenyl)hex-5-enyl]piperazine]
8.30 | OCC(CCN1CCN(c2cccc3c2OCCO3)CC1)c1ccccc1 (stereo not drawn) [Example 37, 1-[5-(2,3-dihydro-1,4-benzodioxinyl)]-4-(4-hydroxy-3-phenylbutyl]piperazine]
8.53 | CN(C)C(=O)c1ccccc1C(CCN1CCN(c2cccc3c2OCCO3)CC1)C(=O)C1CCCCC1 (stereo not drawn) [Example 39, 1-[4-Cyclohexyl-3-(2-dimethylaminocarbonylphenyl)-4-oxobutyl]-4-[5-(2,3-dihydro-1,4-benzodioxinyl)]piperazine]
9.09 | COc1cc(F)ccc1N1CCN(CCC(c2ccccc2)C(OC)C2CCCCC2)CC1 (stereo not drawn) [Example 18, 1-(4-Cyclohexyl-4-methoxy-3-phenylbutyl)-4-(4-fluoro-2-methoxyphenyl)piperazine]
8.77 | COc1cc(F)ccc1N1CCN(CCC(C(=O)C2CCCCC2)c2ccccc2C#N)CC1 (stereo not drawn) [Example 15, 1-[3-(2-Cyanophenyl)-4-cyclohexyl-4-oxobutyl]-4-(4-fluoro-2-methoxyphenyl)piperazine]
9.20 | C#CCOC(C1CCCCC1)C(CCN1CCN(c2cccc3c2OCCO3)CC1)c1ccccc1 (stereo not drawn) [Example 23, 1-(4-Cyclohexyl-3-phenyl-4-propargyloxybutyl)-4-[5-(2,3-dihydro-1,4-benzodioxinyl)]piperazine]
8.93 | CCCOC(C1CCCCC1)C(CCN1CCN(c2cccc3c2OCCO3)CC1)c1ccccc1 (stereo not drawn) [Example 25, 1-(4-Cyclohexyl-3-phenyl-4-propoxybutyl)-4-[5-(2,3-dihydro-1,4-benzodioxinyl)]piperazine]
8.97 | CC(C)C(O)C(CCN1CCN(c2cccc3c2OCCO3)CC1)c1ccccc1 (stereo not drawn) [Example 29]
8.44 | CCC(O)C(CCN1CCN(c2cccc3c2OCCO3)CC1)c1ccccc1OC(F)(F)F (stereo not drawn) [Example 6, 1-[5-(2,3-Dihydro-1,4-benzodioxinyl)]-4-[4-hydroxy-3-(2-trifluoromethoxyphenyl)hexyl]piperazine]

pKi | Compound
9.28 | N#Cc1ccccc1C(CCN1CCN(c2cccc3c2OCCO3)CC1)C(=O)C1CCCCC1 (stereo not drawn) [Example 13, 1-[3-(2-Cyanophenyl)-4-cyclohexyl-4-oxobutyl]-4-[5-(2,3-dihydro-1,4-benzodioxinyl)]piperazine]
8.77 | CCCC(OC)C(CCN1CCN(c2cccc3c2OCCO3)CC1)c1ccccc1 (stereo not drawn) [Example 10, 1-[5-(2,3-Dihydro-1,4-benzodioxinyl)]-4-[(4-methoxy-3-phenyl)heptyl]piperazine]
9.14 | COC(=O)O[C@@H](C1CCCCC1)[C@H](CCN1CCN(c2ccccc2OC)CC1)c1ccccc1F (racemic) [Example 46, (RS,SR) 1-[4-Cyclohexyl-3-(2-fluorophenyl)-4-methoxycarbonyloxybutyl]-4-(2-methoxyphenyl)piperazine]
8.31 | COc1cc(F)ccc1N1CCN(CCC(c2ccccc2C(=O)N(C)C)C(O)C2CCCCC2)CC1 (stereo not drawn) [Example 42, 1-[4-Cyclohexyl-3-(2-dimethylaminocarbonylphenyl)-4-hydroxybutyl]-4-(4-fluoro-2-methoxyphenyl)piperazine]
8.27 | CC(O)C(CCN1CCN(c2cccc3c2OCCO3)CC1)c1ccccc1 (stereo not drawn) [Example 30]
8.52 | CCCOC(CCC)C(CCN1CCN(c2cccc3c2OCCO3)CC1)c1ccccc1 (stereo not drawn) [Example 12, 1-[5-(2,3-Dihydro-1,4-benzodioxinyl)]-4-[(4-propoxy-3-phenyl)heptyl]piperazine]
8.08 | CC(O)C(CCN1CCN(c2cccc3c2OCCO3)CC1)c1ccccc1OC(F)(F)F (stereo not drawn) [Example 5, 1-[5-(2,3-Dihydro-1,4-benzodioxinyl)]-4-[4-hydroxy-3-(2-trifluoromethoxyphenyl)pentyl]piperazine]
8.84 | COC(C1CCCCC1)C(CCN1CCN(c2ccccc2OCC(F)(F)F)CC1)c1ccccc1F (stereo not drawn) [Example 1, 1-[4-Cyclohexyl-3-(2-fluorophenyl)-4-methoxybutyl]-4-[2-(2,2,2-trifluoroethoxy)phenyl]piperazine]
8.58 | CCC(O)C(CCN1CCN(c2cccc3c2OCCO3)CC1)c1ccccc1 (stereo not drawn) [Example 26, 1-[5-(2,3-Dihydro-1,4-benzodioxinyl)]-4-(4-hydroxy-3-phenyl)hexylpiperazine]
8.30 | C#CC(O)C(CCN1CCN(c2cccc3c2OCCO3)CC1)c1ccccc1 (stereo not drawn) [Example 33, 1-[5-(2,3-Dihydro-1,4-benzodioxinyl)]-4-(4-hydroxy-3-phenylhex-5-ynyl)piperazine]
8.74 | CN(C)C(=O)c1ccccc1C(CCN1CCN(c2cccc3c2OCCO3)CC1)C(O)C1CCCCC1 (stereo not drawn) [Example 40, 1-[4-Cyclohexyl-3-(2-dimethylaminocarbonylphenyl)-4-hydroxybutyl]-4-[5-(2,3-dihydro-1,4-benzodioxinyl)]piperazine]
8.83 | CC(C)=CC(O)C(CCN1CCN(c2cccc3c2OCCO3)CC1)c1ccccc1 (stereo not drawn) [Example 35, 1-[5-(2,3-Dihydro-1,4-benzodioxinyl)]-4-(4-hydroxy-6-methyl-3-phenylhept-5-enyl)piperazine]
8.45 | CC=CC(O)C(CCN1CCN(c2cccc3c2OCCO3)CC1)c1ccccc1 (stereo not drawn) [Example 32, 1-[5-(2,3-Dihydro-1,4-benzodioxinyl)]-4-(4-hydroxy-3-phenylhept-5-enyl)piperazine]
8.72 | C=CC(OC)C(CCN1CCN(c2cccc3c2OCCO3)CC1)c1ccccc1OC(F)(F)F (stereo not drawn) [Example 9, 1-[5-(2,3-Dihydro-1,4-benzodioxinyl)]-4-[4-methoxy-3-(2-trifluoromethoxyphenyl)-5-hexenyl]piperazine]
9.11 | C=CCOC(C1CCCCC1)C(CCN1CCN(c2cccc3c2OCCO3)CC1)c1ccccc1 (stereo not drawn) [Example 21, 1-(4-Allyloxy-4-cyclohexyl-3-phenylbutyl)-4-[5-(2,3-dihydro-1,4-benzodioxinyl)]piperazine]

Compound | pKi
N#Cc1ccccc1C(CCN1CCN(c2cccc3c2OCCO3)CC1)C(O)C1CCCCC1 (racemic) [Example 14b, (SR)-1-[3-(2-Cyanophenyl)-4-cyclohexyl-4-hydroxybutyl]-4-[5-(2,3-dihydro-1,4-benzodioxinyl)]piperazine] | 9.02
N#Cc1ccccc1C(CCN1CCN(c2cccc3c2OCCO3)CC1)C(O)C1CCCCC1 (racemic) [Example 14a, (RS)-1-[3-(2-Cyanophenyl)-4-cyclohexyl-4-hydroxybutyl]-4-[5-(2,3-dihydro-1,4-benzodioxinyl)]piperazine] | 9.06
